How the values were obtained:
E. coli cells [1] = experiment: Growth inhibition after 5 min incubation with porphyrin and white-light irradiation; type: cell-based, Escherichia coli; details: for concentration photoinducing significant bacteriostatic and bactericidal action: both cell strains (S. aureus and E. coli)
Description: (§1) The abilities of various examples of the porphyrins of the instant invention to kill Gram-negative and Gram-positive bacteria were tested against that of T4MPyP. Each of the compounds was incubated with E. coli and S. aureus cells for 5 minutes, following which the samples were irradiated with white light for varying lengths of time.
(§2) Escherichia coli strain O4 (wild type), and methycillin-resistant Staphylococcus aureus, strain MRSA 110, were grown aerobically at 37° C. in brain heart infusion broth (BHI, Difco, Detroit, Mich.). The cells in the stationary phase of growth were harvested by centrifugation (2,000 g for 15 min) of the broth cultures, washed twice with 10 mM PBS at pH=7.4, containing 2.7 mM KCl and 0.14 M NaCl, and suspended in PBS at a density of 10^8-10^9 cells/ml (absorbance of about 0.7 at 650 nm). Aliquots of 5 ml of the cell suspension were incubated with 1 μM porphyrins for 5 min in the dark at room temperature. After incubation the suspensions were centrifuged and the cell pellets were collected immediately or washed with PBS and centrifuged again for one or three times.
(§3) The toxic effects of T4MPyP and its analogues on E. coli and S. aureus cells were evaluated by measuring the extent of growth inhibition (bacteriostatic effect) and reduction of survival (cytocidal/bacteriocidal effect) following treatment with porphyrin in the dark or upon light exposure.
(§4) In all cases, 5 ml of the cell suspension (10^8-10^9 cells/ml) were incubated for 5 min in the dark at room temperature with the selected photosensitizer at concentrations ranging between 0.5 and 10 μM. After dark-incubation, some of the cell samples were irradiated with white light (150 mW/cm^2). During irradiation, (up to 30 min) the cells were kept at 37° C. and magnetically stirred. The treated and untreated control cells were diluted with BHI and maintained at 37° C. while the absorbance of the suspension at 650 nm was monitored at predetermined time periods for determining growth curves. The percent of growth inhibition in the treated cells was calculated by the following equation: […]
(§5) where AX, and AC are the absorbances measured after 3 h incubation, respectively, for the treated and control cell suspensions, respectively, while A0 represents the initial absorbance and the AC is that of the control cell suspension after 5 hours incubation. Cell survival was determined by plating serially diluted aliquots of treated and untreated cells on brain heart agar and counting the number of colonies after 18-24 h incubation at 37° C.

S. aureus cells [2] = experiment: as above; type: cell-based, Staphylococcus aureus
Description: as §1, §2, §3
[…] After dark-incubation, some of the cell samples were irradiated with white light (150 mW/cm^2). During irradiation, (up to 30 min) the cells were kept at 37° C. and magnetically stirred. The treated and untreated control cells were diluted with BHI and maintained at 37° C. while the absorbance of the suspension at 650 nm was monitored at predetermined time periods for determining growth curves. The percent of growth inhibition in the treated cells was calculated by the following equation:
as §5

E. coli cells [3] = experiment: Decrease of cell survival (colony counting) after white-light irradiation; type: cell-based, Escherichia coli; details: for DECREASE OF SURVIVAL (log): 5 min dark incubation, 15 min white light (150 mW/cm^2)
Description: as §2, §3, §4, §5

[4] = Fluorescence quantum yields; type: physicochemical; details: for ΦF (PBS), fluorescence quantum yield: in PBS; for ΦF (SDS), fluorescence quantum yield: in aqueous 2% SDS
Description: Ground-state absorption spectra of the porphyrins (ca. 5 μM in phosphate buffered saline (PBS, pH=7.4) were recorded with a Lambda 5 Perkin-Elmer spectrophotometer. Fluorescence spectra, corrected for the instrumental response, were recorded with a Perkin-Elmer (model LS) or a Spex (Fluorolog F112) spectrofluorimeter. Fluorescence quantum yields ((IF) of the porphyrin derivatives in PBS and in water containing 2% sodium dodecylsulfate (a detergent, hereinafter “SDS”) were determined by measuring the area of the emission spectrum (600-800 nm range, excitation at 560 nm) and using tetra-n-propylporphycene in toluene as a reference (ΦF=0.38). Braslavsky et al, J. Photochem. Photobiol. B: Biol., 40:191-198 (1997). In all cases, the absorbance of the sample and the reference solution were kept below 0.1 at the excitation wavelength to minimize inner filter effects.

[5] = Fluorescence decay times (phase-shift method); type: physicochemical; details: ca. 5 μM, air-equilibrated buffer pH 7.4, λexc = 420 nm, λem > 600 nm; for A1, relative weight of fast component: dihydrochloride salt
Description: Fluorescence decay times of the porphyrin samples were measured by means of a Spex Fluorolog-τ2 spectrofluorimeter based on the phase-shift method. The frequency response curves (phase-shift and demodulation ratio vs. frequency) were globally analyzed.

[6] = Triplet state properties by laser flash photolysis; type: physicochemical; details: phosphate-buffered solution; for φT, triplet quantum yield: ε920 estimated by total depletion method
Description: Laser flash photolysis experiments were carried out by use of the setup previously described in Gomer, et al., with excitation wavelengths of 355 and 420 nm. Gorner, et al., Photoinduced electron transfer between styrylanthracenes and electron donors and acceptors in acetonitrile, J. Chem. Soc. Faraday Trans., vol. 88, pp. 29-34 (1992).
The transient spectra of the porphyrins in buffer solutions were recorded upon laser flash photolysis excitation at 355 and 420 nm. […] The decay (growth) of the signal (bleaching) occurred according to first-order kinetics and led to a complete recovery of the ground state with a lifetime of 91 μs. […] This also allowed the triplet quantum yield (φT) to be determined (see Table 3), after calibration of the experimental setup by use of an optically-matched solution of benzophenone in acetonitrile.

[7] = Photosensitized photooxidation of NATA; details: 10 μM NATA; for ΦSDS × 10^3, quantum yield for photo-oxidation of NATA: aqueous 2% SDS; for ΦPBS × 10^3, quantum yield for photo-oxidation of NATA: phosphate buffered solution
Description: The photosensitizing activity of the various porphyrins was tested by measuring their efficiency in promoting the photooxidation of N-acetyl-L-tryptophanamide (NATA, Aldrich Chem. Co.) as a model biological substrate. Toward this aim, 10 μM NATA in PBS or in water containing 2% SDS was irradiated in the presence of 5 μM porphyrin. The irradiations were performed with 515±10 nm-light isolated by means of an interference filter (Balzers, Liechtenstein), while the solution (2 ml) was magnetically stirred in a quartz cuvette of 1-cm optical path and kept at 25° C. The photosensitized modification of NATA was followed by measuring the decrease in the intensity of its fluorescence emission spectrum (300-450 nm) upon excitation with 290 nm-light at various irradiation times. Plots of in F°/F (where F° and F represent the fluorescence intensity at time 0 and t, respectively) vs. the irradiation time allowed the first-order rate constants of the photo-process to be derived.
The intensity of the incident light was measured by using Aberchrome 999P in toluene as an actinometer. Heller, EPA Newslett., 29:49-60 (1987). This parameter was used to calculate the quantum yields of NATA photooxidation sensitized by the different porphyrins.

S. aureus cells [8] = experiment: Binding of porphyrins to bacteria cells; type: cell-based, Staphylococcus aureus; details: 1 μM, 5 min
Description: as §2
The amount of cell-bound porphyrins was determined in the pellets after resuspension and overnight-incubation in 2% aqueous SDS. The porphyrin concentration in the cell lysate was determined by measuring the intensity of red fluorescence (600-750 nm) emitted after excitation at 420 nm and interpolating the data on a calibration plot obtained with known porphyrin concentrations. The protein content of the cell samples was determined by the method of Lowry (Lowry et al., J. Biol. Chem., 193:265-275 (1951)) and was used to express the amount of porphyrin bound to the cells as nanomoles of porphyrin/mg of protein.

S. aureus cells [9] = experiment: Dark toxicity of porphyrins on bacteria cells; type: cell-based, Staphylococcus aureus; details: 10 μM, 5 min incubation in the dark
Description: as §3, §4, §5

E. coli cells [10] = experiment: Dark toxicity of porphyrins on bacteria cells; type: cell-based, Escherichia coli; details: 10 μM, 5 min incubation in the dark
Description: as §3, §4, §5

[11] = 0.5 μM, incubated 5 min, white light 5 min
[12] = Table 5: 0.5 μM, 5 min incubation, 5 min white light (150 mW/cm^2)
[13] = 0.5 μM, incubated 5 min, white light 10 min

Compound | Growth inhibition (%) E. coli (E. coli cells [1]; [11]) | Growth inhibition (%) E. coli (E. coli cells [1]; [12]) | concentration photoinducing significant bacteriostatic and bactericidal action (E. coli cells [1]) | Growth inhibition (%) S. aureus (S. aureus cells [2]; [12]) | DECREASE OF SURVIVAL (log) (E. coli cells [3]; 1 μM porphyrin) | ΦF (PBS), fluorescence quantum yield [4] | ΦF (SDS), fluorescence quantum yield [4] | A2, relative weight of slow component [5] | τ1, fluorescence decay time of fast component [5] | τ2, fluorescence decay time of slow component [5] | A1, relative weight of fast component [5] | λmax of transient spectrum [6] | λmin of transient spectrum [6] | φ×ε920 [6] | τ^N2, triplet lifetime [6] | τ^air, triplet lifetime [6] | φT, triplet quantum yield [6] | ΦSDS × 10^3, quantum yield for photo-oxidation of NATA [7] | ΦPBS × 10^3, quantum yield for photo-oxidation of NATA [7] | association with S. aureus compared with E. coli (S. aureus cells [8]) | also measured
5-(4-N-hexylpyridyl)-10,15,20-tris(4-N-methylpyridyl)-21H,23H-porphine tetrachloride dihydrochloride salt [Porphyrin C6] | 4.8% | 5% | 10 µM | 47% | +0.05 log | 0.018 | 0.029 | 94% | 0.9 ns | 5.1 ns | 6% | 480 nm | 425 nm | 6217 M⁻¹ cm⁻¹ | 71 μs | 16 μs | 0.48 | 0.68 ± 0.14 | 0.59 ± 0.05 | almost two-fold larger | Growth inhibition (%) E. coli (E. coli cells [1]; 0.5 μM, incubated 5 min, white light 30 min): 15.5%; Growth inhibition (%) E. coli (E. coli cells [1]; 10 μM, incubated 5 min, white light 5 min): 98.7%; Growth inhibition (%) E. coli (E. coli cells [1]; 10 μM, incubated 5 min, white light 10 min): 100%; Growth inhibition (%) E. coli (E. coli cells [1]; Table 5: 10 μM, 5 min incubation, 5 min white light (150 mW/cm^2)): 99%; DECREASE OF SURVIVAL (log) (E. coli cells [3]; 10 μM porphyrin): −4.23 ± 0.54 log; inhibition of bacterial cell growth in the dark (S. aureus cells [9]): barely detectable inhibition; inhibition of bacterial cell growth in the dark (E. coli cells [10]): barely detectable inhibition
CCCCCCCCCC[n+]1ccc(-c2c3nc(c(-c4cc[n+](C)cc4)c4ccc([nH]4)c(-c4cc[n+](C)cc4)c4nc(c(-c5cc[n+](C)cc5)c5ccc2[nH]5)C=C4)C=C3)cc1.Cl.Cl.[Cl-].[Cl-].[Cl-].[Cl-] [Porphyrin C10, 5-(4-N-decylpyridyl)-10,15,20-tris(4-N-methylpyridyl)-21H,23H-porphine tetrachloride dihydrochloride salt] | 46.3% | 46% | ten-fold lower concentration | 74% | −4.32 ± 0.34 log | 0.015 | 0.026 | 94% | 1.1 ns | 5.2 ns | 6% | 490 nm | 420 nm | 10214 M⁻¹ cm⁻¹ | 67 μs | 20 μs | 0.49 | 0.64 ± 0.26 | 0.59 ± 0.05 | almost two-fold larger | Growth inhibition (%) E. coli (E. coli cells [1]; [13]): 92%; Growth inhibition (%) E. coli (E. coli cells [1]; 1 μM, incubated 5 min, white light 5 min): 96.1%; Growth inhibition (%) E. coli (E. coli cells [1]; 1 μM, incubated 5 min, white light 10 min): 100%; Growth inhibition (%) S. aureus (S. aureus cells [2]; [11]): 73.9%; Growth inhibition (%) S. aureus (S. aureus cells [2]; [13]): 87.9%; drop in survival of E. coli cells (E. coli cells [3]; 1 μM porphyrin, 15 min irradiation): 4 log

From patent US6573258B2, “Photodynamic porphyrin antimicrobial agents” (Frontier Scientific, Inc., priority 2000, dated 2003)
